# Residue numbers refer to the chain shown, from its start. Entries after “also recorded” stand apart in the source; their conditions may differ.
# Columns and labels:
# [1] = target: T1, KcsA-Kv1.3 T-only chimera (Streptomyces lividans, UniProt P0A334, A54D/A57S/G53D/G56T/I60S/L59F/Q58G/R52A/R64D/T61S/Y62I); assay: Phage-binding competition assay, KcsA-Kv1.3 T-only; parameters: species or system human Kv1.3 turret in Streptomyces lividans KcsA
# T1 construct: made in house; host or cells: E. coli XL1-Blue (pQE30)
# T1 sequence (P0A334 1-160 R52A/G53D/A54D/G56T/A57S/Q58G/L59F/I60S/T61S/Y62I/R64D): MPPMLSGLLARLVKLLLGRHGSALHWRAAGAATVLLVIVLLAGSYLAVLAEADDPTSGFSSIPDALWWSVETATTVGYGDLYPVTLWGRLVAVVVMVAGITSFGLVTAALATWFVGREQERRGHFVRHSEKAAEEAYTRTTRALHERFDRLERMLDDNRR
# Procedure: (§1) Phage stock solutions were diluted to working concentration with phage resuspension buffer supplemented with 2 mM DDM. For protein immobilization, the following amounts were used in a final volume of 50 μl/well: wt KcsA, 0.1 μg; KcsA-Kv1.1 T-only, 0.005 μg; KcsA-Kv1.1 T+F, 0.02 μg; KcsA-Kv1.2 T-only, 0.01 μg; KcsA-Kv1.2 T+F, 0.1 μg; KcsA-Kv1.3 T-only, 0.01 μg; and KcsA-Kv1.3 T+F, 0.1 μg. Protein samples were diluted in 50 μl of storage buffer (20 mM Tris pH8.0, 300 mM KCl, 2 mM DDM) and were added to the designated wells of a Pierce Clear, 96-Well Nickel Coated Plate (15442, Thermo Fisher Scientific), then incubated for 1 h at room temperature on a horizontal shaker at 130 rpm. The plate was blocked for 1 h at room temperature with 180 μl/well TBS-BSA supplemented with 1 mM DDM. Following blocking, the wells were washed 4× with washing buffer (300 μl TBS-Tween, 0.1% v/v) using a Wellwash Versa microplate washer (Thermo Fisher Scientific); then 50 μl phage solution (in TBS-BSA-Tween, 0.1% v/v, 2 mM DDM) at determined phage concentration was added to the wells and incubated for 1 h at room temperature on a horizontal shaker. The plate was washed 4× with washing buffer, then 50 μl anti-M13 IgG HRP (MA5-36125, Invitrogen) diluted to 1:2500 in TBS-Tween (0.1% v/v) was added to the wells and incubated for 1 h at room temperature. The plate was washed again 4× with 300 μl/well washing buffer. Finally, 50 μl/well 1-Step Ultra TMB-ELISA solution (34028, Thermo Fisher Scientific) was added to the wells, and the developing signal was stopped with 50 μl 1M HCl after 5 to 10 min. The light absorbance signal was read at 450 nm with Byonoy absorbance 96 plate reader (Byonoy GmbH).
# (§2) For protein immobilization, the following amounts were used in a final volume of 50 μl/well: KcsA-Kv1.1 T-only, 0.005 μg; KcsA-Kv1.1 T+F, 0.01 μg; KcsA-Kv1.2 T-only, 0.025 μg; KcsA-Kv1.2 T+F, 0.0125 μg; KcsA-Kv1.3 T-only, 0.01 μg; and KcsA-Kv1.3 T+F, 0.1 μg. Protein samples were diluted in storage buffer. Binding of given concentrations of relevant ligand-displaying phages quantified by light absorbance ([…]) were investigated in a similar manner as in phage ELISA-binding assay, while different concentrations of competing toxin test substances were applied simultaneously. The results were converted to percent inhibitions (percent displacement) of the indicator phage binding, and relative affinities of the tested toxins were assessed by plotting percent displacements against log concentrations and determining half maximal inhibitory concentrations (IC50) by sigmoidal curve fitting using “Sigmoidal dose-response (variable slope) with least squares method” algorithm in GraphPad Prism 8 using the following equation: Y=Bottom+Top−Bottom/1+10^(LogEC50−×)⋅HillSlope
# [2] = target: T2, KcsA-Kv1.2 T-only chimera (Streptomyces lividans, UniProt P0A334, A54E/A57S/G53D/G56E/I60P/L59F/P55R/R52A/R64D/T61S/Y62I); assay: Phage-binding competition assay, KcsA-Kv1.2 T-only; parameters: species or system human Kv1.2 turret in Streptomyces lividans KcsA; details: HgTx1-phage competition, KcsA-Kv1.2 T-only; value given in figure, sigmoidal fit to means of three replicates; read-out: IC50 (Fig. 7E)
# T2 sequence (P0A334 1-160 R52A/G53D/A54E/P55R/G56E/A57S/L59F/I60P/T61S/Y62I/R64D): T1 sequence (P0A334 1-160 R52A/G53D/A54D/G56T/A57S/Q58G/L59F/I60S/T61S/Y62I/R64D) with D54E, P55R, T56E, G58Q, S60P
# Procedure: as §1, §2
# [3] = target: T3, KcsA-Kv1.2 T-only chimera (Streptomyces lividans, UniProt P0A334, R52A/G53D/A54E/P55R/G56E/A57S/L59F/I60P/T61S/Y62I/R64D); assay: Phage-binding competition assay, KcsA-Kv1.2 T-only; parameters: species or system human Kv1.2 turret in Streptomyces lividans KcsA
# T3 sequence (P0A334 1-160 R52A/G53D/A54E/P55R/G56E/A57S/L59F/I60P/T61S/Y62I/R64D): T1 sequence (P0A334 1-160 R52A/G53D/A54D/G56T/A57S/Q58G/L59F/I60S/T61S/Y62I/R64D) with D54E, P55R, T56E, G58Q, S60P
# Procedure: as §1, §2
# KcsA-Kv1.2 T+F chimera [4] = target: T4, KcsA-Kv1.2 T+F chimera (Streptomyces lividans, UniProt P0A334, R52A/G53D/A54E/P55R/G56E/A57S/L59F/I60P/T61S/Y62I/R64D/L81M/Y82V/V84T); assay: Phage-binding competition assay, KcsA-Kv1.2 T+F; parameters: species or system human Kv1.2 turret and filter in Streptomyces lividans KcsA; details: rank by competition IC50 among MTX, ShK, KTX1
# T4 sequence (P0A334 1-160 R52A/G53D/A54E/P55R/G56E/A57S/L59F/I60P/T61S/Y62I/R64D/L81M/Y82V/V84T): T1 sequence (P0A334 1-160 R52A/G53D/A54D/G56T/A57S/Q58G/L59F/I60S/T61S/Y62I/R64D) with D54E, P55R, T56E, G58Q, S60P, L81M, Y82V, V84T
# Procedure: as §1, §2
# KcsA-Kv1.2 T+F chimera [5] = target: T5, KcsA-Kv1.2 T+F chimera (Streptomyces lividans, UniProt P0A334, A54E/A57S/G53D/G56E/I60P/L59F/L81M/P55R/R52A/R64D/T61S/V84T/Y62I/Y82V); assay: Phage-binding competition assay, KcsA-Kv1.2 T+F; parameters: species or system human Kv1.2 turret and filter in Streptomyces lividans KcsA; details: displacement of HgTx1-phage; KcsA-Kv1.2 T+F 0.0125 μg/well on nickel-coated plate; mean ± SD (n = 3); read-out: IC50, T+F chimera (Kv1.2)
# T5 sequence (P0A334 1-160 R52A/G53D/A54E/P55R/G56E/A57S/L59F/I60P/T61S/Y62I/R64D/L81M/Y82V/V84T): T1 sequence (P0A334 1-160 R52A/G53D/A54D/G56T/A57S/Q58G/L59F/I60S/T61S/Y62I/R64D) with D54E, P55R, T56E, G58Q, S60P, L81M, Y82V, V84T
# Procedure: as §1, §2
Compound,"IC50 ([1]; HgTx1-phage competition, T-only KcsA-Kv1.3, value given in figure, sigmoidal fit to means of three replicates, read-out: IC50 (Fig. 6E)) [pM]","Rank, T-only chimera (Kv1.3) ([1]; rank by competition IC50 among Vm24, HgTx1, KTX1)",IC50 [2] [pM],"binding to KcsA-Kv1.2 T-only, in words ([3]; HgTx1-phage competition, Fig. 7E (ligand-binding pattern))","Rank, T-only chimera (Kv1.2) ([3]; rank by competition IC50 among MTX, ShK, KTX1)","Rank, T+F chimera (Kv1.2) (KcsA-Kv1.2 T+F chimera [4])",IC50 (KcsA-Kv1.2 T+F chimera [5]) [pM]
"CC[C@H](C)[C@H](NC(=O)[C@H](C)NC(=O)[C@H](C)NC(=O)[C@H](C)N)C(=O)N[C@@H](CO)C(=O)N[C@H]1CSSC[C@@H]2NC(=O)[C@H](CCCCN)NC(=O)CNC(=O)[C@H](CC(N)=O)NC(=O)[C@H](CCCCN)NC(=O)[C@@H]3CSSC[C@@H](C(N)=O)NC(=O)[C@H](Cc4ccc(O)cc4)NC(=O)[C@H](Cc4ccc(O)cc4)NC(=O)[C@@H]4CSSC[C@H](NC(=O)[C@H](CCCCN)NC(=O)[C@@H]5CCCN5C(=O)[C@@H]5CCCN5C(=O)[C@H](CSSC[C@H](NC(=O)[C@H](CCCCN)NC(=O)[C@H](CCCNC(=N)N)NC(=O)[C@H](CC(N)=O)NC(=O)[C@H](CCSC)NC2=O)C(=O)N[C@@H](CCCCN)C(=O)N4)NC(=O)[C@H](CCC(=O)O)NC(=O)[C@@H]2CCCN2C(=O)[C@H](CO)NC(=O)CNC(=O)[C@H](C(C)C)NC1=O)C(=O)N[C@@H](CCCNC(=N)N)C(=O)N[C@@H](C)C(=O)N[C@@H](CCC(N)=O)C(=O)NCC(=O)N3 [Vm24, Vm24 toxin]",603,2,,,,,
"CC[C@H](C)[C@@H]1NC(=O)[C@@H](NC(=O)[C@H](CO)NC(=O)[C@@H](N)CCCNC(=N)N)CSSC[C@@H](C(=O)O)NC(=O)[C@H]([C@@H](C)O)NC(=O)CNC(=O)[C@@H]2CSSC[C@@H]3NC(=O)[C@H](CCC(N)=O)NC(=O)[C@H](Cc4ccccc4)NC(=O)[C@H](C)NC(=O)[C@H]([C@@H](C)O)NC(=O)[C@H](CSSC[C@H](NC(=O)[C@H](Cc4ccccc4)NC(=O)[C@H](CO)NC(=O)[C@H](CC(C)C)NC(=O)[C@H](CCCNC(=N)N)NC(=O)[C@H](Cc4ccc(O)cc4)NC(=O)[C@H](CCCCN)NC(=O)[C@H](CCSC)NC(=O)[C@H](CO)NC(=O)[C@H](Cc4c[nH]cn4)NC(=O)[C@H](CCCCN)NC3=O)C(=O)N[C@@H](CCCNC(=N)N)C(=O)N[C@@H](CCCCN)C(=O)N[C@@H]([C@@H](C)O)C(=O)N2)NC(=O)[C@H](CCCNC(=N)N)NC(=O)[C@H](CO)NC(=O)[C@H](CCCCN)NC(=O)[C@@H]2CCCN2C(=O)[C@H]([C@@H](C)CC)NC(=O)[C@H]([C@@H](C)O)NC(=O)[C@H](CC(=O)O)NC1=O [ShK, Stichodactyla toxin]",,,70.1,inconsistent with their published channel blocking potencies; also recorded: ShK > KTX1 > MTX,1,2,15900

# Reference: paper PMC11002876, “KcsA-Kv1.x chimeras with complete ligand-binding sites provide improved predictivity for screening selective Kv1.x blockers” (The Journal of Biological Chemistry, 2024)
